Experimental data taken from ChEMBL document CHEMBL3046922, “Antioomycete activity of gamma-oxocrotonate fatty acids against P. infestans” (J Agric Food Chem, 2009).
Activity calls are given as the source filed them. No cut-off for these calls is given here.

How the values were obtained:
Phytophthora infestans [1] = assay: Antioomycete activity against Phytophthora infestans isolate 208m2 assessed as zoospore germination at 1 uM after 24 hr by light microscopy; assay type: functional
Phytophthora infestans [2] = assay: Antioomycete activity against Phytophthora infestans isolate 208m2 assessed as inhibition of zoospore germination at 100 nM after 24 hr by light microscopy; assay type: functional; conditions: isolate 208m2, 24 h
Colletotrichum coccodes [3] = assay: Fungicidal activity against Colletotrichum coccodes CBS 369.75 assessed as one-day-old mycelial growth inhibition at 1 uM measured every 24 hr by multiwell plate assay; assay type: functional; conditions: CBS 369.75, 24 h, read-out: GI
Phytophthora infestans [4] = assay: Antioomycete activity against Phytophthora infestans isolate 208m2 infected potato plants assessed as decrease in fungal biomass at 100 uM applied on the abaxial leaf surface 2 hr prior to zoospore inoculation measured 3 days after fungal challenge by realtime PCR analysis; assay type: functional
Solanum tuberosum = assay: Phytotoxicity against Solanum tuberosum cv. Desiree (potato) leaves at 1000 uM; assay type: organism-based; conditions: in vivo
Phytophthora infestans [5] = assay: Antioomycete activity against Phytophthora infestans isolate 208m2 infected potato plants assessed as decrease in fungal biomass at 10 uM applied on the abaxial leaf surface 2 hr prior to zoospore inoculation measured 3 days after fungal challenge by realtime PCR analysis; assay type: functional
Colletotrichum coccodes [6] = assay: Fungicidal activity against Colletotrichum coccodes CBS 369.75 assessed as one-day-old mycelial growth inhibition at 100 uM measured every 24 hr by multiwell plate assay; assay type: functional, organism-based
Phytophthora infestans [7] = assay: Antioomycete activity against Phytophthora infestans isolate 208m2 assessed as lysis of zoospores at 100 uM after 24 hr by light microscopy; assay type: functional, organism-based
Phytophthora infestans [8] = assay: Antioomycete activity against Phytophthora infestans isolate 208m2 assessed as inhibition of zoospore germination at 3.7 uM after 24 hr by light microscopy; assay type: functional, organism-based
Colletotrichum coccodes [9] = assay: Fungicidal activity against Colletotrichum coccodes CBS 369.75 assessed as one-day-old mycelial growth inhibition at 0.01 uM measured every 24 hr by multiwell plate assay; assay type: functional, organism-based
Phytophthora infestans [10] = assay: Antioomycete activity against Phytophthora infestans isolate 208m2 expressing GFP assessed as mature (3-weeks-old) mycelial growth inhibition at 1 to 100 uM applied as a drop solution measured after 24 hr by fluorescence stereomicroscopic analysis; assay type: functional, organism-based
Phytophthora infestans [11] = assay: Antioomycete activity against Phytophthora infestans isolate 208m2 expressing GFP assessed as one-day-old mycelial growth inhibition at 1 mM by plate reader analysis; assay type: functional, organism-based
Phytophthora infestans [12] = assay: Antioomycete activity against Phytophthora infestans isolate 208m2 assessed as zoospore germtube length at 10 nM to 100 uM after 24 hr by light microscopy; assay type: functional, organism-based
Phytophthora infestans [13] = assay: Antioomycete activity against Phytophthora infestans isolate 208m2 assessed as inhibition of zoospore germination at 10 nM after 24 hr by light microscopy; assay type: functional, organism-based

Compound `CCCCCCCCCCCCC(=O)/C=C/C(=O)O` [listing 1 of 2 here] has an Activity (Phytophthora infestans [1]) of under 10%, an inhibition at 0.1 µM (Phytophthora infestans [2]) of over 50% and an inhibition of growth at 1 µM (Colletotrichum coccodes [3]) of 1.5%.
`CCCCCCCCCCCCC(=O)/C=C/C(=O)[O-].[Na+]` was tested, and the inhibition at 100 µM (Phytophthora infestans [4]) was 95%, the Activity (Solanum tuberosum) was “Non-toxic” and the inhibition at 10 µM (Phytophthora infestans [5]) was 80%.
With `CCCCCCCCCCCCC(=O)/C=C/C(=O)O` [listing 2 of 2 here] the “growth inhibition (GI)” value (Colletotrichum coccodes [6]) was “Active”, the Activity (Phytophthora infestans [7]) was “Active” and the inhibition (Phytophthora infestans [8]) was “Active”. For the same compound, the “growth inhibition (GI)” value (Colletotrichum coccodes [9]) was “Active”, the “growth inhibition (GI)” value (Phytophthora infestans [10]) was “Active” and the “growth inhibition (GI)” value (Phytophthora infestans [11]) was “Active”. The Activity (Phytophthora infestans [12]) was “Active” and the inhibition (Phytophthora infestans [13]) was “Active”.
